Data on three compounds can be found in patent US20190285619A1, “VIRUS INFECTION MODEL, PREPARATION METHOD THEREFOR, AND UTILIZATION THEREOF” (priority 2015, published 2019).

This experiment deals with HBV. Description: Inhibition of HBV infection of human liver buds by drugs (intracellular HBV 3.5k RNA and HBV DNA in culture supernatant). It is filed as cell-based. Conditions: HBV 5,000 copies per cell, cultured for 10 days, FIG. 8, vs Con. The protocol:
The endodermal cells obtained, vascular endothelial cells (human umbilical vein-derived endothelial cells) (Lonza, Basel, Switzerland) and undifferentiated mesenchymal cells (human bone marrow-derived mesenchymal stem cells) (Lonza, Basel, Switzerland) were mixed at 10:7:1 (400 cells: 280 cells: 40 cells per organ bud) to prepare human liver buds (120-150 μm in size).
The human liver buds prepared in (2) above were cultured in DMSO-containing medium for 7 days and further cultured in HGF-, OSM- and DEX-containing medium for 7 days, followed by infection with HBV. HBV was recovered from culture supernatant of HepG2.2.15 cells which had been prepared by transferring the intact HBV genome (genotype D) into human hepatoma cell line HepG2 by lipofection. The liver buds were infected with approx. 500 copies of HBV per endodermal cell in 4% PEG8000-containing medium and cultured for about 30 days.
(5) Culture supernatants of human liver buds and human iPS-cell derived hepatocytes were recovered at days 10, 20 and 30 post HBV infection, followed by measurement of HBV DNA. (6) Human liver buds and human iPS-cell derived hepatocytes were recovered at days 10, 20 and 30 post HBV infection, followed by measurement of HBV 3.5k RNA. (7) The inside of human liver buds was immunostained with HBc antibody at days 10, 20 and 30 post HBV infection. (8) Human primary hepatocytes (PXB cells; Phoenix Bio) were infected with the culture supernatant of human liver buds at day 20 post HBV infection. (9) Human liver buds and human iPS-cell derived hepatocytes were recovered at day 20 post HBV infection, followed by measurement of covalently closed circular DNA (cccDNA). (10) Human liver buds at day 10 post HBV infection and non-HBV-infected human liver buds in the corresponding period were fixed with paraformaldehyde and glutaraldehyde, and electron micrographs were taken. (11) Human liver buds were infected with HBV (5,000 copies per cell). […] Intracellular HBV 3.5k RNA and HBV DNA in culture supernatant were measured.

With `C=C1[C@H](CO)[C@@H](O)C[C@@H]1n1cnc2c(=O)[nH]c(N)nc21` [ETV, entecavir, reference compound], the “infection of human liver bud with HBV” value (entecavir) is on record as “inhibited”. Turning to interferon α [IFN-α], for the setting “interferon α 1000 U/ml”, the “infection of human liver bud with HBV” value was “inhibited”. As for interferon γ [IFN-γ], the “infection of human liver bud with HBV” value (interferon γ 1000 U/ml) is “inhibited”.
